According to patent publication US20240217957A1, “HETEROCYCLIC COMPOUND AND USE THEREOF” (TAKEDA PHARMACEUTICAL COMPANY LIMITED, priority 2022, published 2024):

The compounds below were run against T1, human OX2 receptor (Homo sapiens, UniProt O43614) (assay: Measurement of orexin type 2 receptor agonist activity (calcium fluorescence, Fluo-4 AM, FDSS)). Details: compound at 3 μM; CHO cells forcibly expressing human OX2 receptor; DMSO = 0%, 10 nM orexin A (human) = 100%.
T1 construct: expressed in transfected cells
T1 sequence (O43614 1-444): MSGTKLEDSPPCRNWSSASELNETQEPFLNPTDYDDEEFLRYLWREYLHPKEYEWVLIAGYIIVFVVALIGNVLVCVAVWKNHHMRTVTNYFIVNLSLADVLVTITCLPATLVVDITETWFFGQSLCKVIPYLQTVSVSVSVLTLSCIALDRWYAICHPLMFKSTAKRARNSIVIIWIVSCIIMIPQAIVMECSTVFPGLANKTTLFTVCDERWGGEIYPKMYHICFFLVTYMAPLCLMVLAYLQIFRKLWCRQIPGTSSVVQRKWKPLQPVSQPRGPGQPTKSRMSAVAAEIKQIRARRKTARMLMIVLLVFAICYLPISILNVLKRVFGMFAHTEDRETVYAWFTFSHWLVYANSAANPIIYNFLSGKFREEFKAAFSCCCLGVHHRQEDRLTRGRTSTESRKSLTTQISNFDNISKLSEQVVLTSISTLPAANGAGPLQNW
Type: cell-based
Method: In order to obtain cell clones that stably express human orexin type 2 receptor, human orexin type 2 (residues 1-444, NCBI Reference Sequence: AK314279) was constructed in a pcDNA3.1 (+) vector (Invitrogen) to express in mammalian cells. This plasmid DNA was transfected into CHO-K1 cells by electroporation, and stable clones were obtained by limiting dilution using resistance to G418 as a selection marker.
CHO cells in which human OX2 receptor was forcibly expressed were seeded at 10,000 cells/well into a 384-well black transparent bottom plate (BD falcon), and were incubated at 37° C., 5% CO2 for 1 day after incubation at room temperature for 30 minutes. After removing the cell plate medium, assay buffer containing calcium indicator A (HBSS (Thermo Fisher Scientific), 20 mM HEPES (Thermo Fisher Scientific), 0.1% BSA (Sigma-Aldrich), 2.5 μg/mL Fluo-4 AM (Dojin Kagaku), 0.08% Pluronic F127 (Dojin Kagaku), 1.25 mM probenecid (Dojin Kagaku)) was added at 30 μL/well. After incubation in a 5% CO2 incubator at 37° C. for 30 minutes, it was incubated at room temperature for another 30 minutes. Add 10 μL/well of the test compound diluted with assay buffer B (HBSS, 20 mM HEPES, 0.1% BSA), and use FDSS uCELL (Hamamatsu Photonics) to measure the fluorescence value every 1 second for 1 minute, and then every 2 seconds for […]. It was measured for 1 minute and 40 seconds. The amount of fluorescence value when DMSO is added instead of the test compound is defined as 0%, and the amount of fluorescence value when orexin A (human) (Peptide Institute) with a final concentration of 10 nM is added is defined as 100%. The activity (%) of the test compound was calculated.

OX2R agonist activity (3 μM, %) [%]	SMILES
103	CS(=O)(=O)N[C@@H]1CN(C2=NOC(c3ncc(C4CC4)cc3-c3c(F)cc(F)cc3F)C2)CC1(F)F (stereo partly drawn) [Example 18, N-[(3R)-1-{5-[5-cyclopropyl-3-(2,4,6-trifluorophenyl)pyridin-2-yl]-4,5-dihydro-1,2-oxazol-3-yl}-4,4-difluoropyrrolidin-3-yl]methanesulfonamide]
65	Cc1cnc(C2CC(O[C@H]3C[C@@H](NS(C)(=O)=O)C3)=NO2)c(-c2c(F)cccc2F)c1 (stereo partly shown) [Example 20, N-[(1s,3s)-3-({5-[3-(2,6-difluorophenyl)-5-methylpyridin-2-yl]-4,5-dihydro-1,2-oxazol-3-yl}oxy)cyclobutyl]methanesulfonamide]
100	Cc1cnc(C2CC(N3C[C@@H](NS(C)(=O)=O)C(F)(F)C3)=NO2)c(-c2c(F)cccc2F)c1 (stereo partly drawn) [Example 21, N-[(3R)-1-{5-[3-(2,6-difluorophenyl)-5-methylpyridin-2-yl]-4,5-dihydro-1,2-oxazol-3-yl}-4,4-difluoropyrrolidin-3-yl]methanesulfonamide]
102	CCS(=O)(=O)N[C@@H]1CN(C2=NO[C@H](c3ncc(C)cc3-c3c(F)cccc3F)C2)CC1(F)F [Example 22, N-[(3R)-1-{(5S)-5-[3-(2,6-difluorophenyl)-5-methylpyridin-2-yl]-4,5-dihydro-1,2-oxazol-3-yl}-4,4-difluoropyrrolidin-3-yl]ethanesulfonamide]
42	CCS(=O)(=O)NC[C@@H]1CCCN1C1=NOC(c2ncc(C)cc2-c2c(F)cccc2F)C1 (stereo partly drawn) [Example 26, N-{[(2S)-1-{5-[3-(2,6-difluorophenyl)-5-methylpyridin-2-yl]-4,5-dihydro-1,2-oxazol-3-yl}pyrrolidin-2-yl]methyl}ethanesulfonamide]
77	Cc1cnc(C2CC(N(C)[C@H]3C[C@@H](NS(C)(=O)=O)C3)=NO2)c(-c2c(F)cccc2F)c1 (stereo partly shown) [Example 27, N-{(1s,3s)-3-[{5-[3-(2,6-difluorophenyl)-5-methylpyridin-2-yl]-4,5-dihydro-1,2-oxazol-3-yl}(methyl)amino]cyclobutyl}methanesulfonamide]
93	Cc1cnc(C2CC(N3CC[C@@H](NS(C)(=O)=O)C(F)(F)CC3)=NO2)c(-c2c(F)cccc2F)c1 (stereo partly drawn) [Example 28, N-[(4R)-1-{5-[3-(2,6-difluorophenyl)-5-methylpyridin-2-yl]-4,5-dihydro-1,2-oxazol-3-yl}-5,5-difluoroazepan-4-yl]methanesulfonamide]
96	Cc1cnc([C@@H]2CC(N3CC[C@H](NS(C)(=O)=O)C3)=NO2)c(-c2c(F)cccc2F)c1 [Example 29, N-[(3S)-1-{(5S)-5-[3-(2,6-difluorophenyl)-5-methylpyridin-2-yl]-4,5-dihydro-1,2-oxazol-3-yl}pyrrolidin-3-yl]methanesulfonamide]
104	Cc1cnc([C@@H]2CC(N3CC[C@H](NS(=O)(=O)C4(F)CC4)C3)=NO2)c(-c2c(F)cccc2F)c1 [Example 30, N-[(3S)-1-{(5S)-5-[3-(2,6-difluorophenyl)-5-methylpyridin-2-yl]-4,5-dihydro-1,2-oxazol-3-yl}pyrrolidin-3-yl]-1-fluorocyclopropane-1-sulfonamide]
104	Cc1cnc([C@@H]2CC(N3C[C@@H](NS(=O)(=O)C(F)F)C(F)(F)C3)=NO2)c(-c2c(F)cccc2F)c1 [Example 31, N-[(3R)-1-{(5S)-5-[3-(2,6-difluorophenyl)-5-methylpyridin-2-yl]-4,5-dihydro-1,2-oxazol-3-yl}-4,4-difluoropyrrolidin-3-yl]-1,1-difluoromethanesulfonamide]
98	Cc1cnc([C@@H]2CC(N3C[C@H](F)[C@H](NS(C)(=O)=O)C3)=NO2)c(-c2c(F)cccc2F)c1 [Example 32, N-[(3R,4S)-1-{(5S)-5-[3-(2,6-difluorophenyl)-5-methylpyridin-2-yl]-4,5-dihydro-1,2-oxazol-3-yl}-4-fluoropyrrolidin-3-yl]methanesulfonamide]

Further lines, the compound ahead of its results:

SMILES	OX2R agonist activity (3 μM, %) [%]
Cc1cnc(C2(C)CC(N3C[C@@H](NS(C)(=O)=O)C(F)(F)C3)=NO2)c(-c2c(F)cc(F)cc2F)c1 (stereo partly drawn) [Example 10, N-[(3R)-4,4-difluoro-1-{5-methyl-5-[5-methyl-3-(2,4,6-trifluorophenyl)pyridin-2-yl]-4,5-dihydro-1,2-oxazol-3-yl}pyrrolidin-3-yl]methanesulfonamide]	102
Cc1cn(-c2c(F)cccc2F)c(C2(C)CC(N3C[C@@H](NS(C)(=O)=O)C(F)(F)C3)=NO2)n1 (stereo partly drawn) [Example 12, N-[(3R)-1-{5-[1-(2,6-difluorophenyl)-4-methyl-1H-imidazol-2-yl]-5-methyl-4,5-dihydro-1,2-oxazol-3-yl}-4,4-difluoropyrrolidin-3-yl]methanesulfonamide]	71
CCS(=O)(=O)N[C@@H]1CN(C2=NOC(c3ncc(C)cc3-c3c(F)cc(F)cc3F)(C(F)F)C2)CC1(F)F (stereo partly drawn) [Example 13, N-[(3R)-1-{5-(difluoromethyl)-5-[5-methyl-3-(2,4,6-trifluorophenyl)pyridin-2-yl]-4,5-dihydro-1,2-oxazol-3-yl}-4,4-difluoropyrrolidin-3-yl]ethanesulfonamide]	107
Cc1cnc(C2(C(F)F)CC(N3C[C@@H](NS(C)(=O)=O)C(F)(F)C3)=NO2)c(-c2c(F)cc(F)cc2F)c1 (stereo partly drawn) [Example 14, N-[(3R)-1-{5-(difluoromethyl)-5-[5-methyl-3-(2,4,6-trifluorophenyl)pyridin-2-yl]-4,5-dihydro-1,2-oxazol-3-yl}-4,4-difluoropyrrolidin-3-yl]methanesulfonamide]	106
CS(=O)(=O)N[C@@H]1CN(C2=NOC(CO)(c3ncc(F)cc3-c3c(F)cc(F)cc3F)C2)CC1(F)F (stereo partly drawn) [Example 15, N-[(3R)-4,4-difluoro-1-{5-[5-fluoro-3-(2,4,6-trifluorophenyl)pyridin-2-yl]-5-(hydroxymethyl)-4,5-dihydro-1,2-oxazol-3-yl}pyrrolidin-3-yl]methanesulfonamide]	92
Cc1cnc(C2(CO)CC(N3C[C@@H](NS(C)(=O)=O)C(F)(F)C3)=NO2)c(-c2c(F)cc(F)cc2F)c1 (stereo partly drawn) [Example 16, N-[(3R)-4,4-difluoro-1-{5-(hydroxymethyl)-5-[5-methyl-3-(2,4,6-trifluorophenyl)pyridin-2-yl]-4,5-dihydro-1,2-oxazol-3-yl}pyrrolidin-3-yl]methanesulfonamide]	99
Cc1cnc(C2CC(N3CC(F)(F)C3CNS(C)(=O)=O)=NO2)c(-c2c(F)cc(F)cc2F)c1 (stereo not shown) [Example 17, N-[(3,3-difluoro-1-{5-[5-methyl-3-(2,4,6-trifluorophenyl)pyridin-2-yl]-4,5-dihydro-1,2-oxazol-3-yl}azetidin-2-yl)methyl]methanesulfonamide]	80
Cc1cnc(C2CC([C@@H]3CC[C@H](NS(C)(=O)=O)C3)=NO2)c(-c2c(F)cc(F)cc2F)c1 (stereo partly drawn) [Example 19, N-[(1S,3R)-3-{5-[5-methyl-3-(2,4,6-trifluorophenyl)pyridin-2-yl]-4,5-dihydro-1,2-oxazol-3-yl}cyclopentyl]methanesulfonamide]	92
Cc1cnc(C2CC(C3CC(NS(C)(=O)=O)C3)=NO2)c(-c2c(F)cc(F)cc2F)c1 (stereo not shown) [Example 23, N-[(1s,3s)-3-{5-[5-methyl-3-(2,4,6-trifluorophenyl)pyridin-2-yl]-4,5-dihydro-1,2-oxazol-3-yl}cyclobutyl]methanesulfonamide]	42
Cc1cnc(C2CC([C@H]3CC[C@@H](NS(C)(=O)=O)CC3)=NO2)c(-c2c(F)cc(F)cc2F)c1 (stereo partly shown) [Example 24, N-[(1s,4s)-4-{5-[5-methyl-3-(2,4,6-trifluorophenyl)pyridin-2-yl]-4,5-dihydro-1,2-oxazol-3-yl}cyclohexyl]methanesulfonamide]	20
Cc1cnc(C2CC([C@H]3CC[C@H](NS(C)(=O)=O)C3)=NO2)c(-c2c(F)cc(F)cc2F)c1 (stereo partly drawn) [Example 25, N-[(1S,3S)-3-{5-[5-methyl-3-(2,4,6-trifluorophenyl)pyridin-2-yl]-4,5-dihydro-1,2-oxazol-3-yl}cyclopentyl]methanesulfonamide]	88
